From ChEMBL document CHEMBL5634130, “Exploring the structural-activity relationship of hexahydropyrazino[1,2-d]pyrido[3,2-b][1,4]oxazine derivatives as potent and orally-bioavailable PARP7 inhibitors” (Eur J Med Chem, 2023) come the findings set out here.

The target in one data set is Cytochrome P450 3A4 (Homo sapiens, UniProt P08684). In words: Inhibition of CYP3A4 in human liver microsomes using midazolam as substrate preincubated for 10 mins followed by substrate addition measured for 30 mins by LC-MS analysis. Type of data set: ADME, Microsome.
The nature of data set [1]: Half life in fasted ICR mouse at 10 mg/kg, po measured for 24 hrs by LC-MS analysis. As to conditions: in vivo. The data set is classed as ADME, organism-based.
Data set [2] in a line: Half life in fasted Beagle dog at 10 mg/kg, po measured for 24 hrs by LC-MS analysis. Type of data set: ADME, organism-based, Canis lupus familiaris. To be noted: in vivo.

Structures are written as SMILES.

Sequence of Cytochrome P450 3A4 (P08684 whole entry): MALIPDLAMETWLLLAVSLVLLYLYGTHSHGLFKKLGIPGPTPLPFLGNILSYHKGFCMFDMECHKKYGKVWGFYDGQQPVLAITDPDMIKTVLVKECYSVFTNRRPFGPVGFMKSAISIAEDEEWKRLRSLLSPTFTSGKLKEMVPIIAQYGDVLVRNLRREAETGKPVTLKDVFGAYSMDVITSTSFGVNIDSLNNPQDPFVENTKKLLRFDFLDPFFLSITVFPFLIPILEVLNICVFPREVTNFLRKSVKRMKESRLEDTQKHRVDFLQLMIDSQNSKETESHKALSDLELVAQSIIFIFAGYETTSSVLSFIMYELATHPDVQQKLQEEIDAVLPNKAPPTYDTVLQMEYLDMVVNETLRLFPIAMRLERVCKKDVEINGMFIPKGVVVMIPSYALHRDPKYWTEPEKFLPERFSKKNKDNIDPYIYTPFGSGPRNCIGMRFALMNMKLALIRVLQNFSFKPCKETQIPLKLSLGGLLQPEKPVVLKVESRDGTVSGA

`O=C(CCOC[C@@H]1CCN1c1cn[nH]c(=O)c1C(F)(F)F)N1CCN2c3ncc(C(F)(F)F)cc3OC[C@@H]2C1` came in with an IC50 on Cytochrome P450 3A4 of more than 30 µM. Further, the results for the t1/2 in data set [1] and in data set [2] were 3.7 h and 3.6 h, respectively.
